Data published in patent EP3173421A1, “PEPTIDIC COMPOUNDS USEFUL AS ANTIBACTERIAL AGENTS” (Universitat de Barcelona, priority 2015, dated 2017).
Converted amounts (≈) assume the structure as drawn. Like-named read-outs stand apart in the source and are kept apart here. Marks after values point to notes of the source that are not given here. Where a SMILES comes first, the peptide text is derived from it. Bridges are numbered along the chain shown (N, C = ends). [ ]: non-standard residue; d: D form. The star is where a group is joined. ξ: configuration not given here. dAoc(2) = CCCCCC[C@@H](N)C(=O)O; ξLac(3-iPr) = CC(C)CC(O)C(=O)O; Heptanoyl = CCCCCCC(=O)*; Nle = CCCC[C@H](N)C(=O)O; Octanoyl = CCCCCCCC(=O)*; Dab = NCC[C@H](N)C(=O)O; Hexanoyl = CCCCCC(=O)*

Experiments:
[1] = system: Colistin-resistant A. baumannii CR49; format: cell-based
Method: (§7) For resistant and multi-drug resistant bacteria Gram negative bacteria, the test was essentially the same with slight changes in the amounts used: samples of a final volume of 100µL were prepared as follows: aliquots (50 µL) of a suspension containing bacteria at a concentration of 1.5x10^6 colony-forming units/mL in culture medium (MH, Muller Hinton Broth, Difco, USA), adjusted at pH 7.4, were added to 100µL of solution containing the peptide prepared from a stock solution of 1024 mg/L peptide in water in serial 2-fold dilutions in MH broth adjusted to pH 7.4

[2] = system: Escherichia coli NDM-1; format: cell-based
Excerpt: (§1) E. coli strains: NDM-1 (multidrug resistant strain) and VAL10, VAL5 and MAC21 strains show intermediante resistance to quinolones

[3] = system: Escherichia coli VAL 10; format: cell-based
Excerpt: as §1

[4] = system: Escherichia coli VAL 5; format: cell-based
Excerpt: as §1

[5] = system: Escherichia coli MAC21a; format: cell-based
Excerpt: as §1

[6] = system: Pseudomonas aeruginosa 38a; format: cell-based
Method: as §7

[7] = system: Pseudomonas aeruginosa 36a; format: cell-based
Method: as §7

[8] = system: Escherichia coli ATCC 8739; format: cell-based
Excerpt: (§2) Bacterial strains used for the antibacterial activity tests were obtained from the American Type Culture Collection (ATCC, Rockville, MD, USA): • Non resistant Gram-negative bacterias: • Escherichia coli ATCC 8739 • Pseudomonas aeruginosa ATCC 9027 • Non resistant Gram-positive bacteria: • Staphylococcus aureus ATTC6538

[9] = system: Pseudomonas aeruginosa ATCC 9027; format: cell-based
Excerpt: as §2

[10] = system: Staphylococcus aureus ATTC6538; format: cell-based
Excerpt: as §2

[11] = system: Colistin-resistant A. baumannii Ab99; format: cell-based
Method: as §7

[12] = system: Pseudomonas aeruginosa 12S; format: cell-based; conditions: P. aeruginosa 12S
Method: as §7
(§8) Samples of resistant and multi-drug resistant bacteria were from clinical origin and not standardized: • Resistant Gram-negative bacterias used: • Escherichia coli VAL 5 • Escherichia coli VAL 10 • Escherichia coli MAC21a • Escherichia coli NDM-1 • Pseudomonas aeruginosa 36a • Pseudomonas aeruginosa 38a • Pseudomonas aeruginosa 21 R • Pseudomonas aeruginosa 21 S • Pseudomonas aeruginosa 12R • Pseudomonas aeruginosa 12S • Colistin-resistant A. baumannii CR49 • Colistin-resistant A. baumannii Ab99 […]

[13] = system: Pseudomonas aeruginosa 21 S; conditions: P. aeruginosa 21S
Method: (§3) The antibacterial activity of the lipopeptides was measured in sterile 96-well plates (Corning Costar 3598 microtiter plates). Samples of a final volume of 200µL were prepared as follows: aliquots (100 µL) of a suspension containing bacteria at a concentration of 10^5 colony-forming units/mL in culture medium (MH, Muller Hinton Broth, Difco, USA), adjusted at pH 7.4, were added to 100µL of solution containing the peptide prepared from a stock solution of 1 mg/mL peptide in water in serial 2-fold dilutions in MH broth adjusted to pH 7.4 (Jorgensen and Turnide, 2003). Inhibition of bacterial growth was determined by measuring the absorbance at 492 nm with a Absorbance Microplate reader ELx 800 (Bio-tek Instruments) after an incubation of 18-20 h at 37°C. Antibacterial activities are expressed as the MIC, the concentration at which no growth is observed after 18-20 h of incubation. Microorganisms were cultured on Tryptycase Soy Broth (Pronadisa, Barcelona) and incubated at 37°C until growth. Then a loopfull was streaked on Trypticase Soy Agar (Pronadisa, Barcelona) and incubated at 37°C until colony formation occurs. Microorganisms were preserved on cryobilles (EAS laboratoire, France) at -20°C.
(§4) For resistant and multi-drug resistant bacteria Gram negative bacteria, the test was essentially the same with slight changes in the amounts used: samples of a final volume of 100µL were prepared as follows: aliquots (50 µL) of a suspension containing bacteria at a concentration of 1.5x10^6 colony-forming units/mL in culture medium (MH, Muller Hinton Broth, Difco, USA), adjusted at pH 7.4, were added to […] of solution containing the peptide prepared from a stock solution of 1024 mg/L peptide in water in serial 2-fold dilutions in MH broth adjusted to pH 7.4
(§5) Samples of resistant and multi-drug resistant bacteria were from clinical origin and not standardized: • Resistant Gram-negative bacterias used: • Escherichia coli VAL 5 • Escherichia coli VAL 10 • Escherichia coli MAC21a • Escherichia coli NDM-1 • Pseudomonas aeruginosa 36a • Pseudomonas aeruginosa 38a • Pseudomonas aeruginosa 21 R • Pseudomonas aeruginosa 21 S • Pseudomonas aeruginosa 12R • Pseudomonas aeruginosa 12S • Colistin-resistant A. baumannii CR49 • Colistin-resistant A. baumannii Ab99
(§6) P. aeruginosa strains are highly-resistant: For instance, 38a and 36a are resistant to Ceftazidime, Ciprofloxacin, Imipenem, Piperacillin-tazobactam; 21S is resistant to Ceftazidime, Ciprofloxacin, Imipenem, Piperacillin-tazobactam and tobramycin; 21 R is resistant to Ciprofloxacin, tobramycin and colistin; 12S is resistant to cefotoxin, piperacillin/tazobactam, aztreonam, gentamicin and amikacin; and 12R is resistant to ceftazidime, cefotoxin,cefepime, piperacillin/tazobactam, aztreonam,imipenem, gentamicin, amikacin and colistin.

[14] = system: Pseudomonas aeruginosa 21 R; conditions: P. aeruginosa 21R
Method: as §3, §4, §5, §6

[15] = system: Pseudomonas aeruginosa 12R; format: cell-based; conditions: P. aeruginosa 12R
Method: as §7, §8

Row | Compound | MIC [1] | MIC [2] | MIC [3] | MIC [4] | MIC [5] | MIC ([6]; 38a) | MIC ([7]; 36a) | MIC [8] | MIC ([9]; ATCC 9027) | MIC [10] | MIC [11] | MIC [12] | MIC [13] | MIC [14] | MIC [15] | MIC ([9]; P. aeruginosa ATTC9027 (non-resistant)) | MIC ([6]; P. aeruginosa 38a) | MIC ([7]; P. aeruginosa 36a)
1 | CCCCCCC(=O)N[C@@H](Cc1c[nH]cn1)C(=O)N[C@H](C(=O)N[C@@H](CCN)C(=O)N[C@H]1CSSC[C@H](C(N)=O)NC(=O)[C@H](Cc2c[nH]cn2)NC(=O)[C@H](CCN)NC(=O)[C@H](CCCC)NC(=O)[C@@H](CCCCCC)NC(=O)[C@H](CCN)NC1=O)[C@@H](C)O [Example 6] (Heptanoyl-HT[Dab]C[Dab][dAoc(2)][Nle][Dab]H[dC]-NH2; disulfide 4-10) | 4 µg/mL (≈ 3.17 µM) | 8 µg/mL (≈ 6.33 µM) | 16 µg/mL (≈ 12.7 µM) | 8 µg/mL (≈ 6.33 µM) | 8 µg/mL (≈ 6.33 µM) | 32 µg/mL (≈ 25.3 µM) | 1 µg/mL (≈ 0.791 µM) | 4 µg/mL (≈ 3.17 µM) | 1 µg/mL (≈ 0.791 µM) | 16 µg/mL (≈ 12.7 µM) | 32 µg/mL (≈ 25.3 µM) | – | – | – | – | – | – | –
2 | CCCCCCC(=O)N[C@@H](CCN)C(=O)N[C@H](C(=O)N[C@@H](CCN)C(=O)N[C@H]1CSSC[C@H](C(N)=O)NC(=O)[C@H](CCN)NC(=O)[C@H](CCN)NC(=O)C(CC(C)C)OC(=O)[C@@H](CCCCCC)NC(=O)[C@H](CCN)NC1=O)[C@@H](C)O (stereo partly drawn) [Example 2, heptanoyl-Dab-Thr-Dab-cyclo(S-S)[Cys-Dab-DAoc-OLe-Dab-Dab-DCyc]] (Heptanoyl-[Dab]T[Dab]C[Dab][dAoc(2)][ξLac(3-iPr)][Dab][Dab][dC]-NH2; disulfide 4-10) | 16 µg/mL (≈ 13.4 µM) | 1 µg/mL (≈ 0.84 µM) | 32 µg/mL (≈ 26.9 µM) | 1 µg/mL (≈ 0.84 µM) | 8 µg/mL (≈ 6.72 µM) | 0.125 µg/mL (≈ 0.105 µM) | 1 µg/mL (≈ 0.84 µM) | 4 µg/mL (≈ 3.36 µM) | 1 to 2 µg/mL | 64 µg/mL (≈ 53.8 µM) | 16 µg/mL (≈ 13.4 µM) | 0.25 µg/mL (≈ 0.21 µM) | 0.25 µg/mL (≈ 0.21 µM) | 2 µg/mL (≈ 1.68 µM) | 0.25 µg/mL (≈ 0.21 µM) | – | – | –
3 | CCCCCC[C@H]1NC(=O)[C@H](CCN)NC(=O)[C@@H](NC(=O)[C@H](CCN)NC(=O)[C@@H](NC(=O)[C@H](CCN)NC(=O)CCCCC)[C@@H](C)O)CSSC[C@H](C(N)=O)NC(=O)[C@H](CCN)NC(=O)[C@H](CCN)NC(=O)[C@H](CCCC)NC1=O [Example 7, hexanoyl-Dab-Thr-Dab-cyclo(S-S)[Cys-Dab-DAoc-Nle-Dab-Dab-DCys]] (Hexanoyl-[Dab]T[Dab]C[Dab][dAoc(2)][Nle][Dab][Dab][dC]-NH2; disulfide 4-10) | – | – | – | – | – | – | – | 8 µg/mL (≈ 6.81 µM) | – | >32 µg/mL | – | – | – | – | – | 1-2* µg/ml | – | –
4 | CCCCCCCC(=O)N[C@@H](CCN)C(=O)N[C@H](C(=O)N[C@@H](CCN)C(=O)N[C@H]1CSSC[C@H](C(N)=O)NC(=O)[C@H](CCN)NC(=O)[C@H](CCN)NC(=O)C(CC(C)C)OC(=O)[C@@H](CCCCCC)NC(=O)[C@H](CCN)NC1=O)[C@@H](C)O (stereo partly drawn) [Example 4, octanoyl-Dab-Thr-Dab-cyclo(S-S)[Cys-Dab-DAoc-OLe-Dab-Dab-DCys]] (Octanoyl-[Dab]T[Dab]C[Dab][dAoc(2)][ξLac(3-iPr)][Dab][Dab][dC]-NH2; disulfide 4-10) | 16 µg/mL (≈ 13.3 µM) | 1 µg/mL (≈ 0.83 µM) | 8 µg/mL (≈ 6.64 µM) | 1 µg/mL (≈ 0.83 µM) | 8 µg/mL (≈ 6.64 µM) | – | – | 1 µg/mL (≈ 0.83 µM) | 0.25 µg/mL (≈ 0.208 µM) | – | 8 µg/mL (≈ 6.64 µM) | 0.125 µg/mL (≈ 0.104 µM) | 0.25 µg/mL (≈ 0.208 µM) | 2 µg/mL (≈ 1.66 µM) | 0.25 µg/mL (≈ 0.208 µM) | – | 0.125 µg/mL (≈ 0.104 µM) | 0.125 µg/mL (≈ 0.104 µM)
5 | CCCCCC[C@@H](N)C(=O)N[C@H](C(=O)N[C@@H](CCN)C(=O)N[C@H]1CSSC[C@H](C(N)=O)NC(=O)[C@H](CCN)NC(=O)[C@H](CCN)NC(=O)C(CC(C)C)OC(=O)[C@@H](CCCCCC)NC(=O)[C@H](CCN)NC1=O)[C@@H](C)O (stereo partly drawn) [Example 3, DAoc-Thr-Dab-cyclo(S-S)[Cys-Dab-DAoc-OLe-Dab-Dab-DCys]] (H-[dAoc(2)]T[Dab]C[Dab][dAoc(2)][ξLac(3-iPr)][Dab][Dab][dC]-NH2; disulfide 4-10) | 8 µg/mL (≈ 7.15 µM) | 2 µg/mL (≈ 1.79 µM) | 16 µg/mL (≈ 14.3 µM) | 2 µg/mL (≈ 1.79 µM) | 8 µg/mL (≈ 7.15 µM) | 4 µg/mL (≈ 3.57 µM) | 0.5 µg/mL (≈ 0.447 µM) | 2 µg/mL (≈ 1.79 µM) | 0.25 µg/mL (≈ 0.223 µM) | – | 8 µg/mL (≈ 7.15 µM) | 0.5 µg/mL (≈ 0.447 µM) | 0.25 µg/mL (≈ 0.223 µM) | 0.125 µg/mL (≈ 0.112 µM) | 0.25 µg/mL (≈ 0.223 µM) | – | – | –
6 | CCCCCCC(=O)N[C@@H](CCN)C(=O)N[C@H](C(=O)N[C@@H](CCN)C(=O)N[C@H]1CSSC[C@H](C(N)=O)NC(=O)[C@H](CCN)NC(=O)[C@H](CCN)NC(=O)[C@H](CCCC)NC(=O)[C@@H](CCCCCC)NC(=O)[C@H](CCN)NC1=O)[C@@H](C)O [Example 1, heptanoyl-Dab-Thr-Dab-cyclo(S-S)[Cys-Dab-DAoc-Nle-Dab-Dab-DCys]] (Heptanoyl-[Dab]T[Dab]C[Dab][dAoc(2)][Nle][Dab][Dab][dC]-NH2; disulfide 4-10) | – | ≤ 0.5 µg/mL | 1 µg/mL (≈ 0.841 µM) | 1 µg/mL (≈ 0.841 µM) | <0.5 µg/mL | 0.03 µg/mL (≈ 0.0252 µM) | 0.06 µg/mL (≈ 0.0504 µM) | 0.5 to 1 µg/mL | 0.5 µg/mL (≈ 0.42 µM) | 16 µg/mL (≈ 13.5 µM) | – | 0.5 µg/mL (≈ 0.42 µM) | 0.03 µg/mL (≈ 0.0252 µM) | 0.25 µg/mL (≈ 0.21 µM) | 1 µg/mL (≈ 0.841 µM) | – | – | –
7 | CCCCCC[C@H]1NC(=O)[C@H](CCN)NC(=O)[C@@H](NC(=O)[C@H](CCN)NC(=O)[C@@H](NC(=O)[C@H](CCN)NC(=O)CCCCC)[C@@H](C)O)CSSC[C@H](C(N)=O)NC(=O)[C@H](CCN)NC(=O)[C@H](CCN)NC(=O)C(CC(C)C)OC1=O (stereo partly drawn) [Example 5, hexanoyl-Dab-Thr-Dab-cyclo(S-S)[Cys-Dab-DAoc-OLe-Dab-Dab-DCys]] (Hexanoyl-[Dab]T[Dab]C[Dab][dAoc(2)][ξLac(3-iPr)][Dab][Dab][dC]-NH2; disulfide 4-10) | – | – | – | – | – | – | – | 2 to 4 µg/mL | <0.25 µg/mL | 32 µg/mL (≈ 27.2 µM) | – | – | – | – | – | – | – | –
